PMC4301998 (Bioorganic & medicinal chemistry, 2014)
Where two headings read alike, the source gives them in different places.

What was measured:
[1] = test system: S1-M1-80 cells (G482 mutant ABCG2-overexpressing); assay: MTT cytotoxicity in drug-resistant colon cancer cells; assay type: cell-based, human; settings: S1-M1-80 vs S1, MTT; p < 0.001
[2] = test system: HEK293/R2 (ABCG2-overexpressing cells); assay: MTT cytotoxicity in ABCG2-overexpressing cells; assay type: cell-based, human; settings: HEK293/R2 vs HEK293/pcDNA3.1, MTT
[3] = test system: nine human cancer cell lines and three non-cancerous cell lines; additional colon cancer cells; assay: MTT cell survival assay, statements over several cell lines; assay type: cell-based; settings: for IC50: Homo sapiens
[4] = test system: HCT-116, HCT-15, and HEK293 cells; assay: Morphological analysis by microscopy; assay type: cell-based, human; settings: 0, 0.5, 2, or 10 μM, 68 hrs of treatment; HCT-116, HCT-15, HEK293
[5] = test system: HCT-116 colon cancer cells; assay: MTT cell survival assay, HCT-116; assay type: cell-based; settings: Homo sapiens, HCT-116, read-out: IC50 ± SD, HCT-116
[6] = test system: HepG2 cells; settings: 24 hr, CellTiter-Glo
[7] = test system: HEK293/ABCB1 cells; assay: MTT cytotoxicity in ABCB1-overexpressing cells; assay type: cell-based, human; settings: HEK293/ABCB1 vs HEK293/pcDNA3.1, MTT
[8] = test system: HCT-116 cells; assay: Chromosomal DNA fragmentation assay; assay type: cell-based, human; settings: 2.5 μM, 6 hr
[9] = target: T1, human PXR (Homo sapiens, UniProt O75469); assay: PXR transactivation assay; settings: HepG2 reporter gene assay, 24 hr treatment, vs DMSO; IND-2 at 1 or 10 μM
T1 sequence (O75469 1-434): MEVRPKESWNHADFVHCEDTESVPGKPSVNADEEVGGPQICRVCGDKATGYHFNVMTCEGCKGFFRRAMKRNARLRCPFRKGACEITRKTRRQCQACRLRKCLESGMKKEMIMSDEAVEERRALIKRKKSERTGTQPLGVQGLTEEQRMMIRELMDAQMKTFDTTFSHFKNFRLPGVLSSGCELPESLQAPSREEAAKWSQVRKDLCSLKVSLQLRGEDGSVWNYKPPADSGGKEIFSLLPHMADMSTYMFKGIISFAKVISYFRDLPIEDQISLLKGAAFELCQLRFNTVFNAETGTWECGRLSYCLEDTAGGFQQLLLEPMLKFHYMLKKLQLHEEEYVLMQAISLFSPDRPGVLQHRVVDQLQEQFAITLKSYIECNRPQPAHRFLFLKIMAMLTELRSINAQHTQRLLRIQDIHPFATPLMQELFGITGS

For `CCc1c2c(nc3ccc(O)cc13)-c1cc3c(c(=O)n1C2)COC(=O)[C@]3(O)CC` [SN-38], the “resistance of S1-M1-80 cells to the drug” value [1] was “significant resistance”.
In the case of `CC[C@@]1(O)C(=O)OCc2c1cc1n(c2=O)Cc2cc3c(CN(C)C)c(O)ccc3nc2-1` [topotecan], the “resistance of S1-M1-80 cells to the drug” value [1] is reported as “significant resistance”.
`Cc1cc(Cl)n2nc3nc4ccccc4cc3c2n1` [IND-2, 4-Chloro-2-methyl pyrimido[1“,2”:1,5]pyrazolo[3,4-b]quinoline] was tested, and the “resistance of ABCG2-overexpressing cells” value [2] was “no substantial resistance”, the IC50 ([3]; DU-145, read-out: IC50 values against prostate cancer cells) was 0.8 to 1.2 µM and the IC50 ([3]; read-out: IC50 values on colon cancer cells) was less than 1 µM. For the same compound, the “selectivity for inhibition of colon cancer cells relative to HEK293 cells” value ([3]; colon cancer cells vs HEK293) was 10-15 fold, the “selectivity relative to NIH/3T3 mouse fibroblast cells and MDCK cells” value ([3]; colon cancer cells vs NIH/3T3 and MDCK) was 20-40 fold and the “selectivity for colon cancer cells relative to other cancer cells” value ([3]; vs breast, ovarian, and hepatocellular carcinoma cells) was 10-30 fold. For the same compound, the “morphological changes of cells” value [4] was “morphological changes”, the IC50 [5] was 634 ± 120 nM and the “HepG2 cell viability (cytotoxicity)” value ([6]; 1 μM) was “non-cytotoxic”. For the same compound, the “HepG2 cell viability (cytotoxicity)” value ([6]; 10 μM) was “marginally cytotoxic”, the “resistance of ABCB1-overexpressing cells” value [7] was “no substantial resistance” and the “fragmentation of chromosomal DNA” value [8] was “led to fragmentation of chromosomal DNA”. The “PXR transactivation of CYP3A4 promoter activity” value [9] was “did not affect PXR transactivation”.
Compound `Cc1cc(N(C)C)n2nc3nc4ccccc4cc3c2n1` [IND-3, N,N,2-Trimethyl benzopyrido[2’,3’:3,4]pyrazolo[1,5-a]pyrimidin-4-amine] has an IC50 ([3]; read-out: IC50 values against ovarian and breast cancer cells) of 44 to 50 µM.
In the case of `Cc1cc(=O)n2nc3nc4ccccc4cc3c2[nH]1` [IND-1, 2-Methylpyrimido[1”,2”:1,5]pyrazolo[3,4-b]quinoline-4(1H)-one], the IC50 ([3]; read-out: IC50 on the tested cells) is reported as greater than 40 µM.
